The results in this text go back to patent US6692557B1, “Antifouling of shellfish and aquaculture apparatus” (Unisearch Limited, priority 1997, dated 2004).

Data set [1] deals with fouling organisms (predominantly barnacles, small percentages of bryozoans and oysters). The experiment in a line: Port Stephens Stage I field trial: fouling cover on coated live oysters. Format: in vivo. To be noted: sub-tidal; for Mean fouling cover on coated oysters: 22 week trial, untreated control 50%. From the text: The field trial testing the antifouling coatings on oysters at the Port Stephens Fisheries Centre was finalised on week 22 of the trial. This coincided with the slight increase, at varying rates, of the fouling cover on the treated oysters, as shown by FIG. 8.
The trial was testing the antifouling efficacy of two different active ingredients (AI's). Sea-Nine 211™ and the furanone 281, incorporated into carrier coatings when applied to live oysters. The AI's are being tested at concentrations ranging from 10-15% by weight of the carrier coating, using both single and double coats. The trial was conducted in both the inter-tidal and the sub-tidal. In addition to monitoring fouling, oyster mortality was monitored to determine if the coatings and methods used were harmful to the oysters.
Fouling cover was first measured 6 weeks after the start of the trial and has been measured every 3 weeks thereafter. Coated oysters were photographed in the field using a digital camera and fouling cover was measured in the laboratory using the digital images. Fouling cover was measured by estimating the percentage cover of fouling organisms on the oysters. The fouling cover observed was comprised predominantly of barnacles and a small percentages of bryozoans and oysters.

The next data set has as its system Pacific oyster recruits. The experiment in a line: Port Stephens Stage I field trial: Pacific oyster bycatch on coated oysters. Format: in vivo. To be noted: sub-tidal, double coated treatments, at either 10 or 15%. From the text:
After twelve weeks into the fouling trial there was a Pacific oyster settlement event. This enabled an observation of the efficacy of the different coatings as inhibitors of oyster bycatch. FIG. 9 presents the number of new Pacific oyster recruits that settled on the coated oysters.

In another data set the test system is fouling organisms. In words: Stage II shellac trial: fouling on coated perspex tiles. Format: in vivo. The settings on record: shellac carrier, 10% double layer, 15% single and double layers, controls 75% fouling cover after 4 weeks. As for the experimental part: (§1) The shellac trial (stage II) was run for 30 weeks. This experiment was conducted to improve novel antifouling techniques for the aquaculture industry. Shellac was used as a carrier to coat Sea-Nine 211™ onto perspex tiles to determine whether Shellac with C9-211 was effective as an antifouling application and whether the rate at which Sea-Nine 211™ would leach out of the shellac formulation.

Data set [2] in a line: Stage II shellac trial: leaching / release of Sea-Nine 211 from shellac. The format is physicochemical. On the procedure: as §1
Measurements of leaching were carried out to determine the decrease in concentration of Sea-Nine 211™ in each treatment, as shown on FIG. 11. This indicates a regular rate of leaching over the 18 week trial period for each treatment of the same concentration. The rate of leaching is highest for the 15% Sea-Nine 211™ loadings (single and double), while decreasing with reduced compound loading.
The rate of compound release per day is important on determining the effectiveness of a given treatment over time (FIG. 12). Treatments 5% single layer, 10% single and double layer and 15% double layer had the highest initial drops with release rates from 1-2 μg/cm^2/day. The release rate varied for each treatment, over the following 16 weeks, but remained less than 2.0 μg/cm^2/day (FIG. 12).

Take `CCCCCCCCn1sc(Cl)c(Cl)c1=O` [Sea-Nine 211™, 4,5-dichloro-2-n-octyl-4-isothiazolin-3-one]: the “Mean fouling cover on coated oysters” value in data set [1] (active ingredient 10%, single and double coatings) came to 20%; in data set [1] (active ingredient 15% in carrier coating, single and double coats), 15%. Moreover, the “Inhibition of fouling cover” value in data set [1] (15% single and double coats) worked out at 85%. Besides, in the data set on Pacific oyster recruits, the “Inhibition of Pacific oyster bycatch” value is given as “almost totally inhibiting bycatch”. The “Time tiles remained unfouled” value with fouling organisms was 30 weeks. Besides, the “Rate of leaching from shellac” value in data set [2] (15% loadings (single and double), 18 week trial period) was “highest”. Besides, the “Release rate from shellac” value is on record as “less than 2.0 μg/cm^2/day” in data set [2] (each treatment, over the following 16 weeks); 1-2 μg/cm^2/day in data set [2] (initial, treatments 5% single layer, 10% single and double layer, 15% double layer).
